Measured values reported in patent publication US20250040552A1, “FUNGICIDAL COMPOSITIONS” (SYNGENTA CROP PROTECTION AG, priority 2021, published 2025).

How the values were obtained:
[1] = tested on: Glomerella lagenarium (Colletotrichum lagenarium); assay: Example A3: Glomerella lagenarium (Colletotrichum lagenarium) / liquid culture (anthracnose); assay type: cell-based; conditions: Colletotrichum orbiculare, compared to untreated control
Source text: Example A3: Glomerella lagenarium (Colletotrichum lagenarium)/Liquid Culture (Anthracnose) Conidia of the fungus from cryogenic storage are directly mixed into nutrient broth (PDB potato dextrose broth). […] […].10, and X.11.

[2] = tested on: Alternaria solani; assay: Example A1: Alternaria solani / tomato / leaf disc (early blight); assay type: in vivo; conditions: foliar, tomato leaf disks, compared to untreated control
Procedure: Example A1: Alternaria solani/Tomato/Leaf Disc (Early Blight) Tomato leaf disks cv. Baby are placed on agar in multiwell plates (24-well format) and sprayed with the formulated test compound diluted in water. The leaf disks are inoculated with a spore suspension of the fungus 2 days after application. The inoculated leaf disks are incubated at 23° C./21° C. […] […].10, and X.11.

[3] = tested on: Blumeria graminis f. sp. tritici (Erysiphe graminis f. sp. tritici); assay: Example A4: Blumeria graminis f. sp. tritici / wheat / leaf disc preventative (powdery mildew on wheat); assay type: in vivo; conditions: foliar, compared to untreated control
Source text: Example A4: Blumeria graminis f. Sp. Tritici (Erysiphe graminis f. Sp. Tritici)/Wheat/Leaf Disc Preventative (Powdery Mildew on Wheat) Wheat leaf segments cv. Kanzler are placed on agar in a multiwell plate (24-well format) and sprayed with the formulated test compound diluted in water. The leaf disks are inoculated by shaking powdery mildew infected plants above the test plates 1 day after application. […] […].10, and X.11.

[4] = tested on: Magnaporthe grisea (Pyricularia oryzae); assay: whole plant or invertebrate; assay type: in vivo; conditions: foliar, read-out: control of Magnaporthe grisea
[5] = tested on: Pyrenophora teres; assay: Example A12: Pyrenophora teres / barley / leaf disc preventative (net blotch); assay type: in vivo; conditions: foliar, compared to untreated control
Procedure: Example A12: Pyrenophora teres/Barley/Leaf Disc Preventative (Net Blotch) Barley leaf segments cv. Hasso are placed on agar in a multiwell plate (24-well format) and sprayed with the formulated test compound diluted in water. The leaf […] inoculated with a spore suspension of the fungus 2 days after application. The inoculated leaf segments are incubated at 20° C. and 65% rh under a light regime of 12 h light/12 h darkness in a climate cabinet and the activity of a compound is assessed as disease control compared to untreated when an appropriate level of disease damage appears in untreated check leaf segments (5-7 days after application). […] […].10, and X.11.

[6] = tested on: Monographella nivalis (Microdochium nivale); assay: Example A6: Monographella nivalis (Microdochium nivale) / liquid culture (foot rot cereals); assay type: cell-based; conditions: compared to untreated control
Source text: Example A6: Monographella nivalis (Microdochium nivale)/Liquid Culture (Foot Rot Cereals) Conidia of the fungus from cryogenic storage are directly mixed into nutrient broth (PDB potato dextrose broth). […] […].10, and X.11.

[7] = tested on: Puccinia recondita f. sp. tritici; assay: Example A10: Puccinia recondita f. sp. tritici / wheat / leaf disc preventative (brown rust); assay type: in vivo; conditions: foliar, compared to untreated control
Procedure: Example A10: Puccinia recondita f. Sp. Tritici/Wheat/Leaf Disc Preventative (Brown Rust) Wheat leaf segments cv. Kanzler are placed on agar in multiwell plates (24-well format) and sprayed with the formulated test compound diluted in water. The leaf disks are inoculated with a spore suspension of the fungus 1 day after application. The inoculated leaf segments are incubated at 19° C. and 75% rh under a light regime of 12 h light/12 h darkness in a climate cabinet and the activity of a compound is assessed as percent disease control compared to untreated when an appropriate level of disease damage appears in untreated check leaf segments (7-9 days after application). […] […].10, and X.11.

[8] = tested on: Sclerotinia sclerotiorum; assay: Example A13: Sclerotinia sclerotiorum / liquid culture (cottony rot); assay type: cell-based; conditions: 20 ppm, compared to untreated control

SMILES: Cc1sc(N(C(=O)C2CCOC2)c2cc(F)nc(F)c2)nc1C(=O)N(C(=O)C1CCOC1)C1CCC1(C)C (centres unmarked) [Compound X.01, 2-[(2,6-difluoro-4-pyridyl)-(tetrahydrofuran-3-carbonyl)amino]-N-(2,2-dimethylcyclobutyl)-5-methyl-N-(tetrahydrofuran-3-carbonyl)thiazole-4-carboxamide]
- inhibition of growth at 20 ppm [1]: ≥ 80%
- pest or weed control at 200 ppm [2]: ≥ 80%
- pest or weed control at 200 ppm [3]: ≥ 80%
- pest or weed control at 200 ppm [4]: ≥ 80%
- pest or weed control at 200 ppm [5]: ≥ 80%
- inhibition of growth at 20 ppm [6]: ≥ 80%
- pest or weed control at 200 ppm [7]: ≥ 80%

SMILES: Cc1sc(N(C(=O)C2CCCO2)c2cc(F)nc(F)c2)nc1C(=O)NC1CCC1(C)C (centres unmarked) [X.02, 2-[(2,6-difluoro-4-pyridyl)-(tetrahydrofuran-2-carbonyl)amino]-N-(2,2-dimethylcyclobutyl)-5-methyl-thiazole-4-carboxamide]
- inhibition of growth at 20 ppm [1]: ≥ 80%
- pest or weed control at 200 ppm [2]: ≥ 80%
- pest or weed control at 200 ppm [3]: ≥ 80%
- pest or weed control at 200 ppm [4]: ≥ 80%
- pest or weed control at 200 ppm [5]: ≥ 80%
- inhibition of growth at 20 ppm [6]: ≥ 80%
- pest or weed control at 200 ppm [7]: ≥ 80%

SMILES: Cc1sc(N(C(=O)C2CCOC2)c2cc(F)nc(F)c2)nc1C(=O)NC1CCC1(C)C (centres unmarked) [X.03, 2-[(2,6-difluoro-4-pyridyl)-(tetrahydrofuran-3-carbonyl)amino]-N-(2,2-dimethylcyclobutyl)-5-methyl-thiazole-4-carboxamide]
- inhibition of growth at 20 ppm [1]: ≥ 80%
- pest or weed control at 200 ppm [2]: ≥ 80%
- pest or weed control at 200 ppm [3]: ≥ 80%
- pest or weed control at 200 ppm [4]: ≥ 80%
- pest or weed control at 200 ppm [5]: ≥ 80%
- inhibition of growth at 20 ppm [6]: ≥ 80%
- pest or weed control at 200 ppm [7]: ≥ 80%

SMILES: Cc1sc(N(C(=O)C2COC2)c2cc(F)nc(F)c2)nc1C(=O)NC1CCC1(C)C (centres unmarked) [X.04, 2-[(2,6-difluoro-4-pyridyl)-(oxetane-3-carbonyl)amino]-N-(2,2-dimethylcyclobutyl)-5-methyl-thiazole-4-carboxamide]
- inhibition of growth at 20 ppm [1]: ≥ 80%
- pest or weed control at 200 ppm [2]: ≥ 80%
- pest or weed control at 200 ppm [3]: ≥ 80%
- pest or weed control at 200 ppm [4]: ≥ 80%
- pest or weed control at 200 ppm [5]: ≥ 80%
- inhibition of growth at 20 ppm [6]: ≥ 80%
- pest or weed control at 200 ppm [7]: ≥ 80%

SMILES: Cc1sc(N(C(=O)C(C)OC(C)(C)C)c2cc(F)nc(F)c2)nc1C(=O)NC1CCC1(C)C (centres unmarked) [X.05, 2-[2-tert-butoxypropanoyl-(2,6-difluoro-4-pyridyl)amino]-N-(2,2-dimethylcyclobutyl)-5-methyl-thiazole-4-carboxamide]
- pest or weed control at 200 ppm [2]: ≥ 80%
- pest or weed control at 200 ppm [3]: ≥ 80%
- pest or weed control at 200 ppm [4]: ≥ 80%
- pest or weed control at 200 ppm [5]: ≥ 80%
- inhibition of growth at 20 ppm [6]: ≥ 80%
- pest or weed control at 200 ppm [7]: ≥ 80%

SMILES: Cc1sc(N(C(=O)C(C)OC(C)C)c2cc(F)nc(F)c2)nc1C(=O)NC1CCC1(C)C (centres unmarked) [X.06, 2-[(2,6-difluoro-4-pyridyl)-(2-isopropoxypropanoyl)amino]-N-(2,2-dimethylcyclobutyl)-5-methyl-thiazole-4-carboxamide]
- inhibition of growth at 20 ppm [1]: ≥ 80%
- pest or weed control at 200 ppm [2]: ≥ 80%
- pest or weed control at 200 ppm [3]: ≥ 80%
- pest or weed control at 200 ppm [4]: ≥ 80%
- pest or weed control at 200 ppm [5]: ≥ 80%
- inhibition of growth at 20 ppm [6]: ≥ 80%
- pest or weed control at 200 ppm [7]: ≥ 80%

SMILES: Cc1sc(N(C(=O)COC(C)(C)C)c2cc(F)nc(F)c2)nc1C(=O)NC1CCC1(C)C (centres unmarked) [X.07, 2-[(2-tert-butoxyacetyl)-(2,6-difluoro-4-pyridyl)amino]-N-(2,2-dimethylcyclobutyl)-5-methyl-thiazole-4-carboxamide]
- pest or weed control at 200 ppm [3]: ≥ 80%
- pest or weed control at 200 ppm [4]: ≥ 80%

SMILES: Cc1sc(N(C(=O)COC(C)C)c2cc(F)nc(F)c2)nc1C(=O)NC1CCC1(C)C (centres unmarked) [X.08, 2-[(2,6-difluoro-4-pyridyl)-(2-isopropoxyacetyl)amino]-N-(2,2-dimethylcyclobutyl)-5-methyl-thiazole-4-carboxamide]
- pest or weed control at 200 ppm [3]: ≥ 80%
- pest or weed control at 200 ppm [4]: ≥ 80%

SMILES: COC(C)C(=O)N(c1cc(F)nc(F)c1)c1nc(C(=O)NC2CCC2(C)C)c(C)s1 (centres unmarked) [X.09, 2-[(2,6-difluoro-4-pyridyl)-(2-methoxypropanoyl)amino]-N-(2,2-dimethylcyclobutyl)-5-methyl-thiazole-4-carboxamide]
- inhibition of growth at 20 ppm [1]: ≥ 80%
- pest or weed control at 200 ppm [2]: ≥ 80%
- pest or weed control at 200 ppm [3]: ≥ 80%
- pest or weed control at 200 ppm [4]: ≥ 80%
- pest or weed control at 200 ppm [5]: ≥ 80%
- inhibition of growth at 20 ppm [6]: ≥ 80%
- pest or weed control at 200 ppm [7]: ≥ 80%

SMILES: Cc1sc(N(C(=O)C(C)S(C)(=O)=O)c2cc(F)nc(F)c2)nc1C(=O)NC1CCC1(C)C (centres unmarked) [X.10, 2-[(2,6-difluoro-4-pyridyl)-(2-methylsulfonylpropanoyl)amino]-N-(2,2-dimethylcyclobutyl)-5-methyl-thiazole-4-carboxamide]
- control of Sclerotinia sclerotiorum [8]: at least 80%
- inhibition of growth at 20 ppm [1]: ≥ 80%
- pest or weed control at 200 ppm [2]: ≥ 80%
- pest or weed control at 200 ppm [3]: ≥ 80%
- pest or weed control at 200 ppm [4]: ≥ 80%
- pest or weed control at 200 ppm [5]: ≥ 80%
- inhibition of growth at 20 ppm [6]: ≥ 80%

SMILES: Cc1sc(N(C(=O)C2CCOCC2)c2cc(F)nc(F)c2)nc1C(=O)NC1CCC1(C)C (centres unmarked) [X.11, 2-[(2,6-difluoro-4-pyridyl)-(tetrahydropyran-4-carbonyl)amino]-N-(2,2-dimethylcyclobutyl)-5-methyl-thiazole-4-carboxamide]
- inhibition of growth at 20 ppm [1]: ≥ 80%
- pest or weed control at 200 ppm [2]: ≥ 80%
- pest or weed control at 200 ppm [3]: ≥ 80%
- pest or weed control at 200 ppm [5]: ≥ 80%
- inhibition of growth at 20 ppm [6]: ≥ 80%
- pest or weed control at 200 ppm [7]: ≥ 80%
